The test system of series [1] is B. subtilis. In words: Minimum inhibitory concentration (MIC), 96-well plates, serial dilutions in LB medium. Conditions: Bacillus subtilis, read-out: Minimum inhibitory concentration (MIC). It is filed as cell-based. An excerpt:
(§1) Example 12: Determination of the Minimum Inhibitory Concentration (MIC) with Non-Pathogenic E. coli and B. subtilis and/or Pathogenic Strains of S. aureus Including Three MRSA Strains (USA 300, Mu50 and DSM18827) as Well as the Pathogenic Fungus Candida albicans
(§2) Minimum inhibitory concentrations (MIC) for compounds 1 to 11 with non-pathogenic E. coli and B. subtilis and/or pathogenic strains of S. aureus including three MRSA strains (USA 300, Mu50 and DSM18827) as well as the pathogenic fungus Candida albicans were determined in 96-well plates with serial dilutions in LB medium.

Series [2] relates to Candida albicans. The series is described as above. It is filed as cell-based. Conditions: read-out: Minimum inhibitory concentration (MIC).
Description: as §1, §2

Series [3] relates to E. coli K12. The description is as above. It is filed as cell-based. Conditions: Escherichia coli.
Description: as §1, §2

For series [4], the system named is S. aureus DSM18827 (MRSA). Described as above. In kind it is cell-based. Conditions: Staphylococcus aureus, DSM 11827 / DSM 18827 / MRSA, read-out: Minimum inhibitory concentration (MIC).
Description: as §1, §2

Series [5] relates to S. aureus Mu50 (MRSA). The description is as above. It is filed as cell-based. Conditions: Staphylococcus aureus, read-out: Minimum inhibitory concentration (MIC).
Description: as §1, §2

Series [6] concerns S. aureus NCTC 8325. Described as above. In kind it is cell-based. Conditions: Staphylococcus aureus.
Description: as §1, §2

The test system of series [7] is S. aureus USA 300 (MRSA). The series is described as above. In kind it is cell-based. Conditions: Staphylococcus aureus, read-out: Minimum inhibitory concentration (MIC).
Description: as §1, §2
Example 21: Determination of the Minimum Inhibitory Concentration (MIC) for the Compounds Represented by the Formulas (14) and (16) with the Pathogenic USA 300 (MRSA) Strain of S. aureus
Minimum inhibitory concentrations (MIC) for the compounds represented by the Formulas (14) and (16) with the pathogenic MRSA strains of S. aureus USA 300 were determined in 96-well plates with serial dilutions in LB medium.

Series [8] concerns human embryonic kidney cell line HEK-293. The series is described as follows: Toxicological testing, viability by resazurin reduction after 24 h. In kind it is cell-based. Conditions: HEK-293, 0-100 μM tested. Here is the method:
Example 13: Toxicological Testing with Human Embryonic Kidney Cell Line HEK-293
Compounds 3, 5, and 10 were toxicologically tested with human embryonic kidney cell line HEK-293 at concentrations varying from 0 to 100 μM (cf. FIGS. 1 to 3). The viability was measured by resazurin reduction after 24 h.

Series [9] concerns developing neurons (LUHMES d2-3). In words: Toxicological testing with developing neurons in the LUHMES d2-3 assay. It is filed as cell-based. Conditions: 0-100 μM tested. Here is the method: Example 14: Toxicological Testing with Developing Neurons in the LUHMES d2-3 Assay
Compounds 3, 5, and 10 were toxicologically tested with developing neurons in the LUHMES d2-3 assay at concentrations varying from 0 to 100 μM (cf. FIGS. 4 to 6). […] In the case of compound 5 (cf. FIG. 5), general cytotoxicity (orange line) and inhibition of neurite outgrowth each started above 40 μM (green line). For compound 10 (cf. FIG. 6), general cytotoxicity (orange line) started at 80 μM and inhibition of neurite outgrowth started at 40 μM (green line).

For series [10], the target named is elastase (LasB) (Pseudomonas aeruginosa, UniProt P14756). The series is described as follows: In vitro elastase assay with fluorogenic substrate Abz-peptide-Nba. In kind it is biochemical, P. aeruginosa. Here is the method:
Example 16: In Vitro Inhibition of Elastase (LasB) with Compounds 6, 7, and 12
An in-vitro elastase assay was performed according to Cathcart et al. (G. R. Cathcart, B. F. Gilmore, B. Greer, P. Harriott, B. Walker, Bioorganic & medicinal chemistry letters 2009, 19, 6230-6232). For a typical in vitro elastase assay 82 μL buffer (0.05 M TRIS HCl, 2.5 mM CaCl2, pH=7.2) and 5 μL of compound 6 solved in DMSO were added in a 96 well plate. 10 μL of 3 μg/mL elastase (solved in the same Tris/CaCl2 buffer) were added and mixed with the compound. After incubation for 10 min at room temperature, 3 μL fluorogenic substrate Abz-peptide-Nba (2-aminobenzoyl-Ala-Gly-Leu-Ala-4-nitrobenzylamide) in DMF were added and the fluorescence measured for 90 min in one minute steps (excitation at 330 nm, emission at 460 nm). The slope of the resulting graph was used to calculate the enzymatic activity.

For series [11], the target named is T1, elastase (LasB) (Pseudomonas aeruginosa, UniProt Q02RJ6).
T1 construct: 1.4 mL of the culture was centrifuged and the supernatant filtered through a sterile filter; endogenous in cells; host or cells: P. aeruginosa PA14 culture (supernatant)
The series is described as follows: In situ inhibition of elastolytic activity (Elastin-Congo Red) with life cultures of P. aeruginosa PA14. In kind it is cell-based. Here is the method:
Example 17: In Situ Inhibition of Elastase (LasB) with Compound 6
The in situ efficacy of Compound 6 was investigated by measuring the concentration dependent inhibition of elastolytic activity with life cultures of P. aeruginosa. The elastase assay was performed according to Calfee et al. (M. W. Calfee, J. P. Coleman, E. C. Pesci, Proceedings of the National Academy of Sciences of the United States of America 2001, 98, 11633-11637.) 10 μL of an overnight culture of PA14 was added to 3 mL of PTSB medium together with 15 μL of Compound 6 dissolved in DMSO at different stock concentrations. The culture was incubated for 24 h at 37° C. and 200 rpm. 1.4 mL of the culture was centrifuged and the supernatant filtered through a sterile filter. Thereafter, 0.5 mL ECR-buffer (0.1 M Tris HCl, 1 mM CaCl2, pH=7.2) together with 10 mg Elastin-Congo Red was added to 0.5 ml of the sterile flow-through and the mixture incubated for 3 h at 37° C. and 1600 rpm. After the incubation, 0.1 mL Na2EDTA (0.12 M) was added to quench the enzymatic reaction. After mixing, the solution was centrifuged (10 min at 6000 rpm) and 0.2 mL of the supernatant measured at 495 nm in a 96 well plate. It was observed that Compound 6 is an efficient inhibitor of elastolytic activity in situ resulting in sigmoidal inhibition behaviour with an IC50 of 40 μM (cf. FIG. 9).

pIC50: −log10 of the molar value. “And” between values parts separate entries of the source, which are not always exact repeats. Equal values may be shown once. Read-outs that look alike come from different tables or passages of the source.

T1 sequence (Q02RJ6 198-498): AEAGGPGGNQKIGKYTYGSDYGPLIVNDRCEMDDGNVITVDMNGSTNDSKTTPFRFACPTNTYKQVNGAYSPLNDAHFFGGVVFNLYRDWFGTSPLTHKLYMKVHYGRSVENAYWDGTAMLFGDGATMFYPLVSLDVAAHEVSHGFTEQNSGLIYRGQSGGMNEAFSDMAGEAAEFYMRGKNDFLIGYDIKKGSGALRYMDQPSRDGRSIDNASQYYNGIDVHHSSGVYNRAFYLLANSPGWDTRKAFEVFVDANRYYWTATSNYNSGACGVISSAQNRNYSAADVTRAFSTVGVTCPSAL
Sequence of elastase (LasB) (Pseudomonas aeruginosa, UniProt P14756) (P14756 198-498): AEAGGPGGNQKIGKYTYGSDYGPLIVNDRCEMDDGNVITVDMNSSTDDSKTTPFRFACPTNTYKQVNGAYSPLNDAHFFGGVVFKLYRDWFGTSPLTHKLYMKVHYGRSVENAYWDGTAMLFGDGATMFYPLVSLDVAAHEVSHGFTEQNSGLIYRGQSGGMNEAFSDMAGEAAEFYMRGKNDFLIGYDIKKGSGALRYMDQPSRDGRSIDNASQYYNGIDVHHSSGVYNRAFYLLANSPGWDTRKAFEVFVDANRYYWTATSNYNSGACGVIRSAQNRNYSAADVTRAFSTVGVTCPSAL

For the compound `CCCCCCCc1c/c(=N/O)c2ccccc2[nH]1` [Compound 3, 2-heptylquinolin-4(1H)-one oxime], the MIC in series [1] was 50 µM and 12.9 µg/mL; in [2], 100 µM and 25.8 µg/mL; in [3], 300 µM and 78 µg/mL; in [4], 60 µM and 15.5 µg/mL; in [5] (MRSA), 60 µM and 15.5 µg/mL; in series [6] (NCTC8325, read-out: Minimum inhibitory concentration (MIC)), 60 µM and 15.5 µg/mL. Besides, the MIC in series [7] is 60 µM and 15.5 µg/mL. In addition, in series [8], the “Concentration at which cell toxicity starts” value was 40 µM. In addition, the “Concentration at which general cytotoxicity starts” value in [9] was “above 10 μM”. Further, the “Concentration at which inhibition of neurite outgrowth starts” value in series [9] was “above 2.5 μM”.

The pIC50 is the negative decadic logarithm of the IC50, by convention in mol/L. As for `CCCCCCCc1[nH]c2ccccc2c(=S)c1O` [Compound 6, 2-heptyl-3-hydroxyquinoline-4(1H)-thione], the MIC in [1] (B. subtilis, LB medium) was 125 µM and 34.4 µg/mL; in series [2] (C. albicans, LB medium), 100 µM and 27.5 µg/mL; in [4] (S. aureus DSM18827 (also printed DSM11827), MRSA, LB medium), 150 µM and 41.3 µg/mL; in series [5] (S. aureus Mu50 (MRSA), LB medium), 150 µM and 41.3 µg/mL; in series [6] (NCTC8325, S. aureus NCTC 8325, LB medium, read-out: Minimum inhibitory concentration (MIC)), 100 µM and 27.5 µg/mL; in series [7] (S. aureus USA 300 (MRSA), LB medium), 150 µM and 41.3 µg/mL. In addition, the pIC50 is 5.40 in series [10] and 4.40 in [11].
